In patent US7250442B2, “Dihydroindol-2-one derivatives as steroid hormone nuclear receptor modulators” (Eli Lilly and Company, priority 2003, dated 2007):

Each compound was assayed against T1, glucocorticoid receptor (Homo sapiens, UniProt P04150) (assay: Glucocorticoid Receptor Binding Assay ([3H]-dexamethasone displacement, A549 cell extract)). Details: A549 human lung epithelial cell extract, 1.86 nM [3H]-dexamethasone; read-out: GR Ki.
T1 construct: host or cells: A549 human lung epithelial cells (sonicated cell extract)
T1 sequence (P04150 1-777): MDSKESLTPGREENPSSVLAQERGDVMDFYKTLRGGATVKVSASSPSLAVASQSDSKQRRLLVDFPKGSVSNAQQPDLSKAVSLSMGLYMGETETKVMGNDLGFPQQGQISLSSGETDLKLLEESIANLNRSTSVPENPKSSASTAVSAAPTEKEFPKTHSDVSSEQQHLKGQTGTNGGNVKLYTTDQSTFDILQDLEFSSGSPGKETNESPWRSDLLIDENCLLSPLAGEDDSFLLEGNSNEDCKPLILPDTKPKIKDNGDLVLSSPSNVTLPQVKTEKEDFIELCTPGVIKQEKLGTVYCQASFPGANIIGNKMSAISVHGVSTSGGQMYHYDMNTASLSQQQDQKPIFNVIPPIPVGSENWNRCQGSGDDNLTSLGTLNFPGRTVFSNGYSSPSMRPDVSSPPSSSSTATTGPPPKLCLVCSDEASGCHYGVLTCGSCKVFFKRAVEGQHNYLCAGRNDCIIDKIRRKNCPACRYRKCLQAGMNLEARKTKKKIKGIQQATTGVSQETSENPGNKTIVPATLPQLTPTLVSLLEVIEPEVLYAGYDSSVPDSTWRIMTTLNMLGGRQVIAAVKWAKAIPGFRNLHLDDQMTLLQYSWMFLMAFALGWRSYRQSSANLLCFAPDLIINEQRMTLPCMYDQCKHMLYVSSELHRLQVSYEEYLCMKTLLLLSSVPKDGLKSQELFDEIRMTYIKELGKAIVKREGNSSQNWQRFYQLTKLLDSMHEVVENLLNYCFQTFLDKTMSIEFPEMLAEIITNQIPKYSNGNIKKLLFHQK
Outline: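 A549 cell extract (50-200 ug; buffer 50 mM Tris-HCl pH 7.2 with glycerol, NaCl, MgCl2, EDTA, 10 mM molybdate) incubated with 1.86 nM [3H]-dexamethasone and test compound, 16 h at 4 °C. Unbound ligand removed with dextran-coated charcoal; bound radioactivity counted. IC50 converted to Ki via Cheng-Prusoff.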

Ki [nM]	SMILES
≤ 500	Cc1cc(C2(c3cc(C)c(O)c(C)c3)C(=O)N(Cc3ccc(F)cc3)c3ccccc32)cc(C)c1O [Example 2]
≤ 10000	Cc1cc(C2(c3cc(C)c(O)c(C)c3)C(=O)N(Cc3cccc4ccccc34)c3ccccc32)cc(C)c1O [Example 10, 3,3-Bis-(4-hydroxy-3,5-dimethyl-phenyl)-1-naphthalen-1-ylmethyl-1,3-dihydro-indol-2-one]
≤ 500	Cc1cc(C2(c3cc(C)c(O)c(C)c3)C(=O)N(Cc3ccccc3C#N)c3ccccc32)cc(C)c1O [Example 51, 2-[3,3-Bis-(4-hydroxy-3,5-dimethyl-phenyl)-2-oxo-2,3-dihydro-indol-1-ylmethyl]-benzonitrile]
≤ 500	Cc1cc(C2(c3cc(C)c(O)c(C)c3)C(=O)N(Cc3ccc(Cl)c(Cl)c3)c3ccccc32)cc(C)c1O [Example 52, 1-(3,4-Dichloro-benzyl)-3,3-bis-(4-hydroxy-3,5-dimethyl-phenyl)-1,3-dihydro-indol-2-one]
≤ 500	Cc1cc(C2(c3cc(C)c(O)c(C)c3)C(=O)N(Cc3cccc(Cl)c3)c3ccccc32)cc(C)c1O [Example 60, 1-(3-Chloro-benzyl)-3,3-bis-(4-hydroxy-3,5-dimethyl-phenyl)-1,3-dihydro-indol-2-one]
≤ 500	Cc1cc(C2(c3cc(C)c(O)c(C)c3)C(=O)N(Cc3cccc(C(F)(F)F)c3)c3ccccc32)cc(C)c1O [Example 61, 3,3-Bis-(4-hydroxy-3,5-dimethyl-phenyl)-1-(3-trifluoromethyl-benzyl)-1,3-dihydro-indol-2-one]
≤ 500	Cc1cc(C2(c3cc(C)c(O)c(C)c3)C(=O)N(Cc3ccc(Br)cc3F)c3ccccc32)cc(C)c1O [Example 81, 1-(4-Bromo-2-fluoro-benzyl)-3,3-bis-(4-hydroxy-3,5-dimethyl-phenyl)-1,3-dihydro-indol-2-one]
≤ 500	Cc1cc(C2(c3cc(C)c(O)c(C)c3)C(=O)N(Cc3ccc(O)cc3)c3ccccc32)cc(C)c1O [Example 88, 1-(4-Hydroxy-benzyl)-3,3-bis-(4-hydroxy-3,5-dimethyl-phenyl)-1,3-dihydro-indol-2-one]
≤ 500	Cc1cc(C2(c3cc(C)c(O)c(C)c3)C(=O)N(Cc3ccccn3)c3ccccc32)cc(C)c1O [Example 100, 3,3-Bis-(4-hydroxy-3,5-dimethyl-phenyl)-1-pyridin-2-ylmethyl-1,3-dihydro-indol-2-one]
≤ 500	Cc1cc(C2(c3cc(C)c(O)c(C)c3)C(=O)N(Cc3c(C)cccc3C)c3ccccc32)cc(C)c1O [Example 107, 1-(2,6-Dimethyl-benzyl)-3,3-bis-(4-hydroxy-3,5-dimethyl-phenyl)-1,3-dihydro-indol-2-one]
≤ 500	Cc1cc(C2(c3cc(C)c(O)c(C)c3)C(=O)N(Cc3ccc(N)cc3)c3ccccc32)cc(C)c1O [Example 117, 11-(4-Amino-benzyl)-3,3-bis-(4-hydroxy-3,5-dimethyl-phenyl)-1,3-dihydro-indol-2-one]
≤ 500	Cc1cc(C2(c3cc(C)c(O)c(C)c3)C(=O)N(Cc3cccc(N)c3)c3ccccc32)cc(C)c1O [Example 118, 1-(3-Amino-benzyl)-3,3-bis-(4-hydroxy-3,5-dimethyl-phenyl)-1,3-dihydro-indol-2-one]

Continued, compound first:

SMILES	Ki [nM]
Cc1cc(C2(c3cc(C)c(O)c(C)c3)C(=O)N(Cc3ccc(C(C)(C)C)cc3)c3ccccc32)cc(C)c1O [Example 7, 1-(4-tert-Butyl-benzyl)-3,3-bis-(4-hydroxy-3,5-dimethyl-phenyl)-1,3-dihydro-indol-2-one]	≤ 1000
COc1ccc2c(c1)C(c1cc(C)c(O)c(C)c1)(c1cc(C)c(O)c(C)c1)C(=O)N2Cc1ccccc1 [Example 16, 1-Benzyl-3,3-bis-(4-hydroxy-3,5-dimethyl-phenyl)-5-methoxy-1,3-dihydro-indol-2-one]	≤ 500
Cc1cc(C2(c3ccc(O)cc3)C(=O)N(Cc3ccccc3)c3ccccc32)cc(C)c1O (stereo not shown) [Example 29, 1-Benzyl-3-(4-hydroxy-3,5-dimethyl-phenyl)-3-(4-hydroxy-phenyl)-1,3-dihydro-indol-2-one]	≤ 500
COc1ccccc1C(=O)CN1C(=O)C(c2cc(C)c(O)c(C)c2)(c2cc(C)c(O)c(C)c2)c2ccccc21 [Example 44, 3,3-Bis-(4-hydroxy-3,5-dimethyl-phenyl)-1-[2-(2-methoxy-phenyl)-2-oxo-ethyl]-1,3-dihydro-indol-2-one]	≤ 500
COc1cccc(C(=O)CN2C(=O)C(c3cc(C)c(O)c(C)c3)(c3cc(C)c(O)c(C)c3)c3ccccc32)c1 [Example 45, 3,3-Bis-(4-hydroxy-3,5-dimethyl-phenyl)-1-[2-(3-methoxy-phenyl)-2-oxo-ethyl]-1,3-dihydro-indol-2-one]	≤ 500
COc1ccc(C(=O)CN2C(=O)C(c3cc(C)c(O)c(C)c3)(c3cc(C)c(O)c(C)c3)c3ccccc32)cc1 [Example 46, 3,3-Bis-(4-hydroxy-3,5-dimethyl-phenyl)-1-[2-(4-methoxy-phenyl)-2-oxo-ethyl]-1,3-dihydro-indol-2-one]	≤ 500
COc1ccc(OC)c(C(=O)CN2C(=O)C(c3cc(C)c(O)c(C)c3)(c3cc(C)c(O)c(C)c3)c3ccccc32)c1 [Example 49, 1-[2-(2,5-Dimethoxy-phenyl)-2-oxo-ethyl]-3,3-bis-(4-hydroxy-3,5-dimethyl-phenyl)-1,3-dihydro-indol-2-one]	≤ 500
COC(=O)c1cccc(CN2C(=O)C(c3cc(C)c(O)c(C)c3)(c3cc(C)c(O)c(C)c3)c3ccccc32)c1 [Example 55, 3-[3,3-Bis-(4-hydroxy-3,5-dimethyl-phenyl)-2-oxo-2,3-dihydro-indol-1-ylmethyl]-benzoic acid methyl ester]	≤ 500
Cc1cc(C2(c3cc(C)c(O)c(C)c3)C(=O)N(Cc3ccc(C(F)(F)F)cc3)c3ccccc32)cc(C)c1O [Example 57, 3,3-Bis-(4-hydroxy-3,5-dimethyl-phenyl)-1-(4-trifluoromethyl-benzyl)-1,3-dihydro-indol-2-one]	≤ 500
Cc1nc(CN2C(=O)C(c3cc(C)c(O)c(C)c3)(c3cc(C)c(O)c(C)c3)c3ccccc32)cs1 [Example 89, 3,3-Bis-(4-hydroxy-3,5-dimethyl-phenyl)-1-(2-methyl-thiazol-4-ylmethyl)-1,3-dihydro-indol-2-one]	≤ 1000
Cc1ccc2c(c1)C(c1cc(C)c(O)c(C)c1)(c1cc(C)c(O)c(C)c1)C(=O)N2Cc1csc(C)n1 [Example 93, 3,3-Bis-(4-hydroxy-3,5-dimethyl-phenyl)-5-methyl-1-(2-methyl-thiazol-4-ylmethyl)-1,3-dihydro-indol-2-one]	≤ 10000
Cc1cc(C2(c3cc(C)c(O)c(C)c3)C(=O)N(CC3CC3)c3ccccc32)cc(C)c1O [Example 105, 1-Cyclopropylmethyl-3,3-bis-(4-hydroxy-3,5-dimethyl-phenyl)-1,3-dihydro-indol-2-one]	≤ 500
Cc1cc(C2(c3cc(C)c(O)c(C)c3)C(=O)N(Cc3cc(C(F)(F)F)ccc3F)c3ccccc32)cc(C)c1O [Example 112, 1-(2-Fluoro-5-trifluoromethyl-benzyl)-3,3-bis-(4-hydroxy-3,5-dimethyl-phenyl)-1,3-dihydro-indol-2-one]	≤ 500
Cc1cc(C2(c3cc(C)c(O)c(C)c3)C(=O)N(C3CCCC3)c3ccccc32)cc(C)c1O [Example 114, 1-Cyclopentyl-3,3-bis-(4-hydroxy-3,5-dimethyl-phenyl)-1,3-dihydro-indol-2-one]	≤ 500
Cc1cc(C2(c3cc(C)c(O)c(C)c3)C(=O)N(CCc3scnc3C)c3ccccc32)cc(C)c1O [Example 121, 3,3-Bis-(4-hydroxy-3,5-dimethyl-phenyl)-1-[2-(4-methyl-thiazol-5-yl)-ethyl]-1,3-dihydro-indol-2-one]	≤ 500
COc1ccc(N2C(=O)C(c3cc(C)c(O)c(C)c3)(c3cc(C)c(O)c(C)c3)c3ccccc32)cc1 [Example 128, 3,3-Bis-(4-hydroxy-3,5-dimethyl-phenyl)-1-(4-methoxy-phenyl)-1,3-dihydro-indol-2-one]	≤ 500
COc1cccc(N2C(=O)C(c3cc(C)c(O)c(C)c3)(c3cc(C)c(O)c(C)c3)c3ccccc32)c1 [Example 134, 3,3-Bis-(4-hydroxy-3,5-dimethyl-phenyl)-1-(3-methoxy-phenyl)-1,3-dihydro-indol-2-one]	≤ 500
Cc1cc(C2(c3cc(C)c(O)c(C)c3)C(=O)N(c3cccnc3)c3ccccc32)cc(C)c1O [Example 135, 3,3-Bis-(4-hydroxy-3,5-dimethyl-phenyl)-1-pyridin-3-yl-1,3-dihydro-indol-2-one]	≤ 500
Cc1cc(C2(c3cc(C)c(O)c(C)c3)C(=O)N(c3cccc(Br)c3)c3ccccc32)cc(C)c1O [Example 139, 1-(3-Bromo-phenyl)-3,3-bis-(4-hydroxy-3,5-dimethyl-phenyl)-1,3-dihydro-indol-2-one]	≤ 500
